From the supplement of paper PMC13380429

Tests used:
Details in all cases: 72 h
U2OS [1] = assay: drug sensitivity score (DSS) for viability; higher = more toxic; extreme values may be limits of the assay
Caco-2 [2] = assay: as above
HepG2 [3] = assay: as above
U2OS [4] = assay: relative viability EC50 (midpoint between 100% and the lowest measured viability); higher = less toxic
Caco-2 [5] = assay: as above
HepG2 [6] = assay: as above
U2OS [7] = assay: cell viability relative to DMSO; higher = less toxic
Caco-2 [8] = assay: as above
HepG2 [9] = assay: as above
Vero E6 [10] = assay: drug sensitivity score (DSS) for viability; higher = more toxic; extreme values may be limits of the assay
Calu-3 [11] = assay: as above
Vero E6 [12] = assay: relative viability EC50 (midpoint between 100% and the lowest measured viability); higher = less toxic
Calu-3 [13] = assay: as above
Vero E6 [14] = assay: cell viability relative to DMSO; higher = less toxic
Calu-3 [15] = assay: as above

SMILES | drug sensitivity score (U2OS [1]) | drug sensitivity score (Caco-2 [2]) | drug sensitivity score (HepG2 [3]) | relative viability EC50 (U2OS [4]) [µM] | relative viability EC50 (Caco-2 [5]) [µM] | relative viability EC50 (HepG2 [6]) [µM] | cell viability (U2OS [7]; 1 nM) [%] | cell viability (U2OS [7]; 10 nM) [%] | cell viability (U2OS [7]; 100 nM) [%] | cell viability (U2OS [7]; 1000 nM) [%] | cell viability (U2OS [7]; 10000 nM) [%] | cell viability (Caco-2 [8]; 1 nM) [%] | cell viability (Caco-2 [8]; 10 nM) [%] | cell viability (Caco-2 [8]; 100 nM) [%] | cell viability (Caco-2 [8]; 1000 nM) [%] | cell viability (Caco-2 [8]; 10000 nM) [%] | cell viability (HepG2 [9]; 1 nM) [%] | cell viability (HepG2 [9]; 10 nM) [%] | cell viability (HepG2 [9]; 100 nM) [%] | cell viability (HepG2 [9]; 1000 nM) [%] | cell viability (HepG2 [9]; 10000 nM) [%] | drug sensitivity score (Vero E6 [10]) | drug sensitivity score (Calu-3 [11]) | relative viability EC50 (Vero E6 [12]) [µM] | relative viability EC50 (Calu-3 [13]) [µM] | cell viability (Vero E6 [14]; 1 nM) [%] | cell viability (Vero E6 [14]; 10 nM) [%] | cell viability (Vero E6 [14]; 100 nM) [%] | cell viability (Vero E6 [14]; 1000 nM) [%] | cell viability (Vero E6 [14]; 10000 nM) [%] | cell viability (Calu-3 [15]; 1 nM) [%] | cell viability (Calu-3 [15]; 10 nM) [%] | cell viability (Calu-3 [15]; 100 nM) [%] | cell viability (Calu-3 [15]; 1000 nM) [%] | cell viability (Calu-3 [15]; 10000 nM) [%]
NC(=O)OCCCc1ccccc1 [phenprobamate] | 0 | 0 | 0 | > 10 | > 10 | > 10 | 102 | 98.6 | 103 | 102 | 98.9 | 104 | 95.4 | 99.1 | 102 | 104 | 105 | 109 | 95 | 98.6 | 112 |  |  |  |  |  |  |  |  |  |  |  |  |  | 
CCc1ccc(CCOc2ccc(CC3SC(=O)NC3=O)cc2)nc1 (stereo not given) [pioglitazone] | 0 | 0 |  | > 10 | > 10 |  | 94.8 | 94.7 | 96 | 97.8 | 95.8 | 93.1 | 100 | 98.6 | 92.4 | 91.5 |  |  |  |  |  | 2 | 0.1 | > 10 | > 10 | 99 | 101 | 98.9 | 83 | 85.5 | 94.9 | 98.1 | 95.1 | 106 | 84.1
NCCNc1ccc(NCCN)c2c1C(=O)c1ccncc1C2=O [pixantrone] | 0 | 1.9 | 3.3 | > 10 |  |  | 100 | 101 | 96.5 | 103 | 87.2 | 87.4 | 105 | 96.7 | 88.1 | 74.9 | 100 | 94.8 | 98.9 | 90.2 | 62.9 | 0 | 0.3 | > 10 | > 10 | 104 | 104 | 104 | 94.4 | 97 | 93.4 | 120 | 95.4 | 102 | 82.5
CCOC(=O)[C@H](C)C[C@@H](Cc1ccc(-c2ccccc2)cc1)NC(=O)CCC(=O)O [sacubitril] | 0 | 0 |  | > 10 | > 10 |  | 101 | 98.5 | 96 | 97.3 | 97.5 | 94.4 | 95.3 | 101 | 92.5 | 100 |  |  |  |  |  | 0 | 0 | > 10 | > 10 | 93.6 | 106 | 91.3 | 94.5 | 107 | 91.6 | 96.6 | 99.4 | 97.3 | 98.5
O=C1NC(=O)[C@@]2(CCOc3ccc(F)cc32)N1 [sorbinil] | 0 |  |  | > 10 |  |  | 96.7 | 105 | 97 | 102 | 96.5 |  |  |  |  |  |  |  |  |  |  |  | 0 |  | > 10 |  |  |  |  |  | 103 | 120 | 87.5 | 113 | 102
Cc1ccc(C(=O)c2cc(O)c(O)c([N+](=O)[O-])c2)cc1 [tolcapone] |  |  | 0 |  |  | > 10 |  |  |  |  |  |  |  |  |  |  | 106 | 117 | 105 | 109 | 97.2 | 0 |  | > 10 |  | 109 | 102 | 99.8 | 100 | 104 |  |  |  |  | 
Cc1cc(Nc2cc(N3CCN(C)CC3)nc(Sc3ccc(NC(=O)C4CC4)cc3)n2)n[nH]1 [tozasertib] | 4.4 | 1.1 | 9.1 |  | > 10 | 0.448 | 105 | 101 | 101 | 86.2 | 54.9 | 97.1 | 91.1 | 96.2 | 97.7 | 77.9 | 103 | 99.2 | 70.4 | 72.4 | 36.4 | 1.6 | 2.2 | > 10 |  | 107 | 107 | 100 | 84.2 | 85 | 110 | 97.6 | 96.8 | 89.1 | 70.9
COc1ccc(/C=C/C(=O)Nc2ccccc2C(=O)O)cc1OC [tranilast] | 0 | 0 |  | > 10 | > 10 |  | 97.2 | 97.3 | 93.2 | 99.8 | 96 | 96.9 | 97 | 95.3 | 103 | 93.3 |  |  |  |  |  |  | 0 |  | > 10 |  |  |  |  |  | 91.9 | 107 | 88.3 | 95.9 | 93.1
N#Cc1ccc2[nH]cc(CCCCN3CCN(c4ccc5oc(C(N)=O)cc5c4)CC3)c2c1 [vilazodone] | 0 | 0.3 | 2.2 | > 10 | > 10 |  | 99.4 | 108 | 97.7 | 101 | 92 | 96.6 | 106 | 104 | 101 | 83 | 107 | 99.9 | 99.5 | 95.9 | 66.4 | 2 | 0 |  | > 10 | 92.7 | 99.6 | 95.3 | 91.2 | 71.6 | 87.5 | 88.7 | 74.5 | 93.6 | 86.6
